The record followed here is patent US9315494B2, “Alkyl-amide-substituted pyridyl compounds useful as modulators of IL-12, IL-23 and/or IFNα responses” (Bristol-Myers Squibb Company, priority 2012, dated 2016).

Each structure is given as a SMILES string.

The test system of test [1] is IL-23-stimulated STAT-dependent luciferase reporter in Kit225 T cells. Description: Kit225 T cell assay, IL-23 stimulated STAT-dependent luciferase reporter. It counts as cell-based, human. Particulars: Kit225 T cells, 20 ng/mL human recombinant IL-23, 5-6 hours, luciferase; read-out: IL23 (Kit225 T Cell Inhibition Data). The procedure: (§1) Kit225 T cells with a stably-integrated STAT-dependent luciferase reporter were plated in RPMI (Gibco) containing 10% heat-inactivated FBS (Gibco) and 100 U/mL PenStrep (Gibco). The cells were then stimulated with either 20 ng/mL human recombinant IL-23 or 200 U/mL human recombinant IFNα (PBL InterferonSource) for 5-6 hours. Luciferase expression was measured using the STEADY-GLO® Luciferase Assay System (Promega) according to the manufacturer's instructions.
On the technique in general: A reporter such as luciferase makes a cellular process visible.

Test [2] deals with IFNα-stimulated STAT-dependent luciferase reporter in Kit225 T cells. Description: Kit225 T cell assay, IFNα stimulated STAT-dependent luciferase reporter. It is filed as cell-based, human. To be noted: Kit225 T cells, 200 U/mL human recombinant IFNα, 5-6 hours, luciferase; read-out: IFNα (Kit225 T Cell Inhibition Data). The procedure:
as §1

Turning to `CNC(=O)c1cnc(Nc2ccc(F)cn2)cc1Nc1cccc2c1OC(F)(F)O2` [Example 123], the results for the IC50 in test [1] and in test [2] were 8790 nM and 11100 nM, respectively.
Consider `CNC(=O)c1cnc(Nc2ccc(C#N)cn2)cc1Nc1ccc(F)cc1OC` [Example 124], for which the figures for the IC50 in test [1] and in test [2] were 462 nM and 640 nM, respectively.
For `CNC(=O)c1cnc(Nc2ccc(-n3cc(F)ccc3=O)cn2)cc1Nc1ccc(F)cc1OC` [Example 126], the results for the IC50 in test [1] and in test [2] were 830 nM and 700 nM, respectively.
Consider `CNC(=O)c1cnc(Nc2ccc(N3CCCC3=O)cn2)cc1Nc1ccc(F)cc1OC` [Example 127], for which the IC50 stood at 852 nM in test [1] and 470 nM in test [2].
For `CNC(=O)c1cnc(Nc2cc(C)ccn2)cc1Nc1cc(F)cc(F)c1OC` [Example 129], the IC50 in test [1] is 86.6 nM; in test [2] it was 80 nM.
In the same order, the values of `CNC(=O)c1cnc(Nc2cccc(OC)n2)cc1Nc1cc(F)cc(F)c1OC` [Example 130] are 119 nM and 50 nM.
For `CNC(=O)c1cnc(Nc2ccccn2)cc1Nc1cc(F)cc(F)c1OC` [Example 131] the same measures were 183 nM and 60 nM.
As to `CNC(=O)c1cnc(Nc2cccc(C)n2)cc1Nc1cc(F)cc(F)c1OC` [Example 132], the IC50 in test [1] is 187 nM; in test [2] it was 120 nM.
In the case of `CNC(=O)c1cnc(Nc2ccc(OC)cn2)cc1Nc1cc(F)cc(F)c1OC` [Example 133], the IC50 in test [1] turned out to be 179 nM; in test [2] it was 70 nM.
As for `CNC(=O)c1cnc(Nc2ccc(C(F)(F)F)cn2)cc1Nc1cc(F)cc(F)c1OC` [Example 135], the IC50 was 3420 nM in test [1] and 1530 nM in test [2].
Regarding `CNC(=O)c1cnc(Nc2cc3ccccc3cn2)cc1Nc1cc(F)cc(F)c1OC` [Example 136], the IC50 in test [1] was found to be 747 nM; in test [2] it was 390 nM.
On to `CNC(=O)c1cnc(Nc2cc(F)ccn2)cc1Nc1cc(F)cc(F)c1OC` [Example 137], for which the IC50 in test [1] worked out at 188 nM; in test [2] it was 210 nM.
For `CNC(=O)c1cnc(Nc2cccc(C(F)(F)F)n2)cc1Nc1cc(F)cc(F)c1OC` [Example 138] the same measures were 354 nM and 220 nM.
For `CNC(=O)c1cnc(Nc2ccc(C#N)c(C)n2)cc1Nc1cc(F)cc(F)c1OC` [Example 139] the same measures were 367 nM and 180 nM.
Turning to `CNC(=O)c1cnc(Nc2cc(C)c(C#N)c(C)n2)cc1Nc1cc(F)cc(F)c1OC` [Example 140], the IC50 was 281 nM in test [1] and 120 nM in test [2].
In the same order, the values of `CCc1cccc(Nc2cc(Nc3cc(F)cc(F)c3OC)c(C(=O)NC)cn2)n1` [Example 141] are 401 nM and 350 nM.
As to `CNC(=O)c1cnc(Nc2ccc(N3CCCC3=O)cn2)cc1Nc1ccc(F)cc1OCF` [Example 142], the IC50 in test [1] stood at 742 nM; in test [2] it was 410 nM.
Turning to `CNC(=O)c1cnc(Nc2cccc(-c3ccccc3)n2)cc1Nc1cc(F)cc(F)c1OC` [Example 143], the IC50 in test [1] came out at 783 nM; in test [2] it was 560 nM.
Regarding `CNC(=O)c1cnc(Nc2ccc(C#N)cn2)cc1Nc1cc(F)cc(F)c1OC` [Example 145], the results for the IC50 in test [1] and in test [2] were 794 nM and 420 nM, respectively.
For `CNC(=O)c1cnc(Nc2cc3ccccc3cn2)cc1Nc1ccc(F)cc1OC` [Example 146] the same measures were 2160 nM and 1450 nM.
For `CNC(=O)c1cnc(Nc2ccccn2)cc1Nc1ccc(F)cc1OC` [Example 147] the same measures were 1060 nM and 520 nM.
In the case of `CNC(=O)c1cnc(Nc2cc(C)ccn2)cc1Nc1ccc(F)cc1OC` [Example 148], the IC50 in test [1] is 751 nM; in test [2], 300 nM.
In the same order, the values of `CNC(=O)c1cnc(Nc2cc(F)ccn2)cc1Nc1ccc(F)cc1OC` [Example 149] are 1190 nM and 330 nM.
For `CNC(=O)c1cnc(Nc2cccc(-c3ccccc3)n2)cc1Nc1ccc(F)cc1OC` [Example 150] the same measures were 2700 nM and 1520 nM.
Take `CNC(=O)c1cnc(Nc2ccc(F)cn2)cc1Nc1ccc(F)cc1OCF` [Example 151]: the values for the IC50 in test [1] and in test [2] were 1140 nM and 240 nM, respectively.
For `CNC(=O)c1cnc(Nc2cc(Cl)ccn2)cc1Nc1ccc(F)cc1OC` [Example 153] the same measures were 1330 nM and 970 nM.
As for `CNC(=O)c1cnc(Nc2cccc(OC)n2)cc1Nc1ccc(F)cc1OC` [Example 154], the IC50 in test [1] was 784 nM; in test [2] it was 560 nM.
As to `CNC(=O)c1cnc(Nc2cc(C#N)ccn2)cc1Nc1ccc(F)cc1OC` [Example 155], the figures for the IC50 in test [1] and in test [2] were 275 nM and 190 nM, respectively.
In the same order, the values of `CNC(=O)c1cnc(Nc2cccc(C(F)(F)F)n2)cc1Nc1ccc(F)cc1OC` [Example 156] are 1650 nM and 720 nM.
For `CNC(=O)c1cnc(Nc2ccc(C(F)(F)F)cn2)cc1Nc1ccc(F)cc1OC` [Example 157] the same measures were 5200 nM and 9860 nM.
For `CNC(=O)c1cnc(Nc2ccc(Cl)cn2)cc1Nc1ccc(F)cc1OC` [Example 158] the same measures were 4440 nM and 2100 nM.
Regarding `CNC(=O)c1cnc(Nc2ccc(C)cn2)cc1Nc1ccc(F)cc1OC` [Example 159], the IC50 in test [1] stood at 1150 nM; in test [2], 1400 nM.
With `CNC(=O)c1cnc(Nc2ccc3[nH]ccc3n2)cc1Nc1ccc(F)cc1OC` [Example 160], the IC50 in test [1] stood at 1240 nM; in test [2] it was 1070 nM.
For `CNC(=O)c1cnc(Nc2ccc(OC)cn2)cc1Nc1ccc(F)cc1OC` [Example 161] the same measures were 760 nM and 610 nM.
In the same order, the values of `CNC(=O)c1cnc(Nc2ccc(C#N)cn2)cc1Nc1ccc(F)cc1OCF` [Example 162] are 215 nM and 460 nM.
With `CNC(=O)c1cnc(Nc2cc(C)c(C#N)c(C)n2)cc1Nc1ccc(F)cc1OC` [Example 163], the IC50 in test [1] stood at 306 nM; in test [2], 230 nM.
For `CNC(=O)c1cnc(Nc2cccc(-n3ccccc3=O)n2)cc1Nc1cc(F)cc(F)c1OC` [Example 164] the same measures were 4410 nM and 2990 nM.
For `CNC(=O)c1cnc(Nc2cc(C#N)ccn2)cc1Nc1ccc(F)cc1OCF` [Example 166] the same measures were 157 nM and 90 nM.
In the case of `CNC(=O)c1cnc(Nc2cc(-n3ccccc3=O)ccn2)cc1Nc1cc(F)cc(F)c1OC` [Example 167], the IC50 in test [1] turned out to be 510 nM; in test [2] it was 310 nM.
With `CNC(=O)c1cnc(Nc2cc(-n3ccccc3=O)ccn2)cc1Nc1ccc(F)cc1OC` [Example 168], the IC50 in test [1] came to 1420 nM; in test [2] it was 1220 nM.
As for `CNC(=O)c1cnc(Nc2cc(OC)ccn2)cc1Nc1cc(F)cc(F)c1OC` [Example 169], the results for the IC50 in test [1] and in test [2] were 352 nM and 440 nM, respectively.
On to `CNC(=O)c1cnc(Nc2cc(OC)ccn2)cc1Nc1ccc(F)cc1OC` [Example 170], for which the IC50 in test [1] is 1620 nM; in test [2], 1720 nM.
In the case of `CNC(=O)c1cnc(Nc2ccc(F)cn2)cc1Nc1cccc(F)c1OC` [Example 171], the figures for the IC50 in test [1] and in test [2] were 175 nM and 90 nM, respectively.
Take `CNC(=O)c1cnc(Nc2ccccn2)cc1Nc1cccc(F)c1OC` [Example 172]: the IC50 in test [1] is 89.2 nM; in test [2] it was 50 nM.
